Test [1] deals with T1, Vasoactive intestinal polypeptide receptor 1 (Homo sapiens, UniProt P32241).
T1 sequence (P32241 whole entry): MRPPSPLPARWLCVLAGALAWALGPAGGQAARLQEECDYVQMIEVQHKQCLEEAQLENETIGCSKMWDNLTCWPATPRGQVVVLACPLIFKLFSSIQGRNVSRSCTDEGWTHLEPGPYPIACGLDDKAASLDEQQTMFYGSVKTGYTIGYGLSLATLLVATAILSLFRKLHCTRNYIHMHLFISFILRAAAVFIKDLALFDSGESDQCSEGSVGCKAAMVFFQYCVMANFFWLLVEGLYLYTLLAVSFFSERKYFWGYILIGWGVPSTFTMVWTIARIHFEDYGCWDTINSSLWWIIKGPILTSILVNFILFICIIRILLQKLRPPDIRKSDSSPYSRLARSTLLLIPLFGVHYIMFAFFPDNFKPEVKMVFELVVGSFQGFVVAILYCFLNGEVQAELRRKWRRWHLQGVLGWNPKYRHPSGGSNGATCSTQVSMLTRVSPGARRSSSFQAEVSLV
It counts as cell membranes, Membrane. Particulars: ht-29.

The target of test [2] is Aldo-keto reductase family 1 member B1 (Rattus norvegicus, UniProt P07943). Nature of the test: biochemical. It counts as tissue-based, Lens of camera-type eye.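 Further: inhibition of aldose reductase enzyme activity, measured with DL-glyceraldehyde as the substrate; in other assays of this panel Not Active means under 50% inhibition at 10 µM.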
Test [3] in a line: DRUGMATRIX: Atrial Natriuretic Factor (ANF) radioligand binding (ligand: [125I] ANF (rat)). It counts as cell membranes, Cavia porcellus, Dunkin-Hartley, Adrenal gland, Membrane. Particulars: Not Active = under 50% inhibition at 10 µM.
The next test addresses T2, Cathepsin G (Homo sapiens, UniProt P08311).
T2 sequence (P08311 whole entry): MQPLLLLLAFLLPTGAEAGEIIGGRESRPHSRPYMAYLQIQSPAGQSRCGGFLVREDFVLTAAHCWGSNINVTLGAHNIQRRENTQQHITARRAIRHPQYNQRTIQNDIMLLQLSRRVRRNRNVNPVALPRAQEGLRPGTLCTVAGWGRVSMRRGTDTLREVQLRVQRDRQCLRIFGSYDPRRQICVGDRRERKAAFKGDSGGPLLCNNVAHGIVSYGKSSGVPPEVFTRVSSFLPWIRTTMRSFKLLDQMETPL
The experiment in a line: biochemical. The format is tissue-based, Neutrophil. The note with it: neutrophil.

Test [4] addresses T3, 5-hydroxytryptamine receptor 1A (Rattus norvegicus, UniProt P19327).
T3 sequence (P19327 whole entry): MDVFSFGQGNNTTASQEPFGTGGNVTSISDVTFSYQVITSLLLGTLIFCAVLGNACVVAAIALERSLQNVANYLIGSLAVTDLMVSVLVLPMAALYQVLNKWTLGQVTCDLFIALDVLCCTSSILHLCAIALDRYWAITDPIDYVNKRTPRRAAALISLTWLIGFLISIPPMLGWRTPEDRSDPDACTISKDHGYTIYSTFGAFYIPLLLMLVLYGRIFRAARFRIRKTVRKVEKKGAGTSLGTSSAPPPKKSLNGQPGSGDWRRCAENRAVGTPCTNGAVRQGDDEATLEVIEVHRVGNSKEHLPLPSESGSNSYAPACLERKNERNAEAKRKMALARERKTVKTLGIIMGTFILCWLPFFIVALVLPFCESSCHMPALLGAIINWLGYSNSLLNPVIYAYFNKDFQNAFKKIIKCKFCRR
The format is cell membranes, CHO-K1, Membrane. Particulars: cho-k1.

The next test has as its target Melanocortin receptor 4 (Homo sapiens, UniProt P32245). The format is cell membranes, Membrane. The note with it: hek293. Further: in other assays of this panel Not Active means under 50% inhibition at 10 µM.
Test [5] can be described thus: DRUGMATRIX: Sigma2 radioligand binding (ligand: [3H] Ifenprodil). It counts as cell membranes, Rattus norvegicus, Wistar, Brain, Membrane. The note with it: Not Active = under 50% inhibition at 10 µM.

The term IC50 denotes the concentration at which inhibition is half-maximal.

Sequence of Melanocortin receptor 4 (P32245 whole entry): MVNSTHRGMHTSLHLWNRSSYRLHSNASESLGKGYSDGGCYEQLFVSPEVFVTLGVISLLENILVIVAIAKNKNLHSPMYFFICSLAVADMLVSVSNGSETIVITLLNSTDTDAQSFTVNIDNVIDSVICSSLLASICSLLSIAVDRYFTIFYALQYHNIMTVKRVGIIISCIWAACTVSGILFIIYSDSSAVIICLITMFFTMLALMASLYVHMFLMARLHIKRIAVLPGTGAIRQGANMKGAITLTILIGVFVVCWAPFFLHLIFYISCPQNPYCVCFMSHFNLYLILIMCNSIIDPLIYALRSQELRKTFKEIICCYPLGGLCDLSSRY

Turning to `Cc1ccnc(NS(=O)(=O)c2ccc(N)cc2)n1` [SULFAMERAZINE], the IC50 entry (in test [1]; in test [2]; in test [3]; at Cathepsin G; in test [4]; against Melanocortin receptor 4) was “Not Active” throughout. Also, the IC50 entry in test [5] was “Not Active”. In addition, the Ki result in test [3] and in test [5] was “Not Active” throughout.
As to `Cc1nnc(NS(=O)(=O)c2ccc(N)cc2)s1` [SULFAMETHIZOLE], the IC50 result (in test [1]; in test [2]; in test [3]; against Cathepsin G; in test [4]; against Melanocortin receptor 4) was “Not Active” throughout. Moreover, the half-maximal inhibitory concentration (IC50) entry in test [5] was “Not Active”. Also, the Ki result in test [3] and in test [5] was “Not Active” in each case.
Take `O=C(O)c1cc(/N=N/c2ccc(S(=O)(=O)Nc3ccccn3)cc2)ccc1O` [SULFASALAZINE]: the concentration for half-maximal inhibition (IC50) entry was “Not Active” in test [1]; 17 µM in test [2] (read-out: IC50); “Not Active” in test [3]; “Not Active” against Cathepsin G; “Not Active” in test [4]; “Not Active” on Melanocortin receptor 4. Further, the IC50 entry in test [5] is “Not Active”. For the same compound, the Ki result in test [3] and in test [5] was “Not Active” in each case.
Turning to `CCN1CCCC1CNC(=O)c1cc(S(N)(=O)=O)ccc1OC` (configuration not stated) [SULPIRIDE], the IC50 entry (in test [1]; in test [2]; in test [3]; on Cathepsin G; in test [4]; against Melanocortin receptor 4) was “Not Active” throughout. Further, the IC50 result in test [5] is listed as “Not Active”. Besides, the Ki result in test [3] and in test [5] was “Not Active” throughout.
As for `O=C(OC[C@H]1O[C@@H](OC(=O)c2cc(O)c(O)c(OC(=O)c3cc(O)c(O)c(O)c3)c2)[C@H](OC(=O)c2cc(O)c(O)c(OC(=O)c3cc(O)c(O)c(O)c3)c2)[C@@H](OC(=O)c2cc(O)c(O)c(OC(=O)c3cc(O)c(O)c(O)c3)c2)[C@@H]1OC(=O)c1cc(O)c(O)c(OC(=O)c2cc(O)c(O)c(O)c2)c1)c1cc(O)c(O)c(OC(=O)c2cc(O)c(O)c(O)c2)c1` [TANNIC ACID], the 50% inhibitory concentration (IC50) result was “Not Active” in test [1]; 0.346 µM in test [2] (read-out: IC50); “Not Active” in test [3]; “Not Active” on Cathepsin G; “Not Active” in test [4]; “Not Active” against Melanocortin receptor 4. In test [5], the IC50 entry was “Not Active”. Also, the Ki entry in test [3] and in test [5] was “Not Active” throughout.
`C#C[C@]1(O)CC[C@H]2[C@@H]3[C@H](C)CC4=C(CCC(=O)C4)[C@H]3CC[C@@]21C` [TIBOLONE]: the IC50 entry (in test [1]; in test [2]; in test [3]; at Cathepsin G; in test [4]; against Melanocortin receptor 4) was “Not Active” throughout. Further, the IC50 entry in test [5] is given as “Not Active”. For the same compound, the Ki result in test [3] and in test [5] was “Not Active” each time.
Regarding `Cc1cccc(C)c1NC(=O)C(C)N` (configuration not stated) [TOCAINIDE], the IC50 result (in test [1]; in test [2]; in test [3]; against Cathepsin G; in test [4]; against Melanocortin receptor 4) was “Not Active” in each case. In addition, the 50% inhibitory concentration (IC50) entry in test [5] is recorded as “Not Active”. The Ki entry in test [3] and in test [5] was “Not Active” each time.
With `Cc1ccc(S(=O)(=O)NC(=O)NN2CCCCCC2)cc1` [TOLAZAMIDE], the half-inhibitory concentration (IC50) result (in test [1]; in test [2]; in test [3]; on Cathepsin G; in test [4]; at Melanocortin receptor 4) was “Not Active” throughout. Moreover, the IC50 result in test [5] is “Not Active”. Also, the Ki entry in test [3] and in test [5] was “Not Active” throughout.
As for `CC[C@@]1(O)C(=O)OCc2c1cc1n(c2=O)Cc2cc3c(CN(C)C)c(O)ccc3nc2-1` [TOPOTECAN], the concentration for half-maximal inhibition (IC50) result (in test [1]; in test [2]; in test [3]; on Cathepsin G; in test [4]; against Melanocortin receptor 4) was “Not Active” throughout. For the same compound, the IC50 result in test [5] was “Not Active”. The Ki entry in test [3] and in test [5] was “Not Active” each time.
In the case of `CC1=C(/C=C/C(C)=C/C=C/C(C)=C/C(=O)O)C(C)(C)CCC1` [TRETINOIN], the half-inhibitory concentration (IC50) result (in test [1]; in test [2]; in test [3]; against Cathepsin G; in test [4]; on Melanocortin receptor 4) was “Not Active” throughout. The IC50 entry in test [5] is “Not Active”. The Ki result in test [3] and in test [5] was “Not Active” throughout.
For `CC(Cl)(Cl)Cl` [TRICHLOROETHANE], the 50% inhibitory concentration (IC50) result (in test [1]; in test [2]; in test [3]; at Cathepsin G; in test [4]; on Melanocortin receptor 4) was “Not Active” throughout. In addition, the IC50 entry in test [5] is “Not Active”. For the same compound, the Ki entry in test [3] and in test [5] was “Not Active” each time.
For the compound `CN1C(=O)OC(C)(C)C1=O` [TRIMETHADIONE], the 50% inhibitory concentration (IC50) entry (in test [1]; in test [2]; in test [3]; on Cathepsin G; in test [4]; on Melanocortin receptor 4) was “Not Active” throughout. Besides, the IC50 result in test [5] is on record as “Not Active”. Further, the Ki result in test [3] and in test [5] was “Not Active” in each case.
Consider LEAD(IV) ACETATE, for which the IC50 result (in test [1]; in test [2]; in test [3]; against Cathepsin G; in test [4]; on Melanocortin receptor 4) was “Not Active” throughout. Also, the half-maximal inhibitory concentration (IC50) entry in test [5] is “Not Active”. Further, the Ki entry (in test [1]; in test [2]; in test [3]; on Cathepsin G; in test [4]; at Melanocortin receptor 4) was “Not Active” each time. Moreover, the Ki result in test [5] is given as “Not Active”.
